# Results: US12552775B2, “Compounds and uses thereof” (Foghorn Therapeutics Inc., priority 2020, dated 2026)
# Legend:
# [1] = target: T1, HiBit-BRM fusion protein (Homo sapiens, UniProt P51531); test: HiBiT-BRM cell-based degradation assay (Nano-Glo HiBiT Lytic Detection, 24 h); conditions: stable HeLa cell line expressing HiBiT-BRM, top dose 30 μM
# T1 construct: expressed in transfected cells
# Experimental: (§1) Procedure: A stable HeLa cell line expressing HiBiT-BRM was generated. On day 0, 5000 cells were seeded in 40 μL of media into each well of 384-well cell culture plates. On day 1, cells were treated with 120 nL DMSO or 120 nL of 3-fold serially DMSO-diluted compounds (10 points in duplicate with 30 μM as final top dose). Subsequently plates were incubated for 24 h in a standard tissue culture incubator and equilibrated at room temperature for 15 minutes. Nano-Glo HiBiT Lytic Detection System (Promega N3050) reagent was freshly prepared and 20 ul was added to each well. Upon addition of this LgBit-containing reagent, the HiBiT and LgBiT proteins associate to form the luminescent NanoBiT luciferase. The plates were shaken for 10 minutes at room temperature and the bioluminescence read using an EnVision plate reader (PerkinElmer).
# (§2) The degradation % was calculated using the following formula: % degradation=100%−100%×(Lumsample−LumLC)/(LumHC−LumLC). DMSO treated cells are employed as High Control (HC) and 2 μM of a known BRM/BRG1 degrader standard treated cells are employed as Low Control (LC).
# [2] = target: T2, HiBit-BRG1 fusion protein (Homo sapiens, UniProt P51532); test: HiBiT-BRG1 cell-based degradation assay (Nano-Glo HiBiT Lytic Detection, 24 h); conditions: stable HeLa cell line expressing HiBit-BRG1 and LgBit, top dose 30 μM, read-out: BRG1 HiBit Degradation Maximum (%)
# T2 construct: expressed in transfected cells
# T2 sequence (P51532 whole entry, the tested form may be a part): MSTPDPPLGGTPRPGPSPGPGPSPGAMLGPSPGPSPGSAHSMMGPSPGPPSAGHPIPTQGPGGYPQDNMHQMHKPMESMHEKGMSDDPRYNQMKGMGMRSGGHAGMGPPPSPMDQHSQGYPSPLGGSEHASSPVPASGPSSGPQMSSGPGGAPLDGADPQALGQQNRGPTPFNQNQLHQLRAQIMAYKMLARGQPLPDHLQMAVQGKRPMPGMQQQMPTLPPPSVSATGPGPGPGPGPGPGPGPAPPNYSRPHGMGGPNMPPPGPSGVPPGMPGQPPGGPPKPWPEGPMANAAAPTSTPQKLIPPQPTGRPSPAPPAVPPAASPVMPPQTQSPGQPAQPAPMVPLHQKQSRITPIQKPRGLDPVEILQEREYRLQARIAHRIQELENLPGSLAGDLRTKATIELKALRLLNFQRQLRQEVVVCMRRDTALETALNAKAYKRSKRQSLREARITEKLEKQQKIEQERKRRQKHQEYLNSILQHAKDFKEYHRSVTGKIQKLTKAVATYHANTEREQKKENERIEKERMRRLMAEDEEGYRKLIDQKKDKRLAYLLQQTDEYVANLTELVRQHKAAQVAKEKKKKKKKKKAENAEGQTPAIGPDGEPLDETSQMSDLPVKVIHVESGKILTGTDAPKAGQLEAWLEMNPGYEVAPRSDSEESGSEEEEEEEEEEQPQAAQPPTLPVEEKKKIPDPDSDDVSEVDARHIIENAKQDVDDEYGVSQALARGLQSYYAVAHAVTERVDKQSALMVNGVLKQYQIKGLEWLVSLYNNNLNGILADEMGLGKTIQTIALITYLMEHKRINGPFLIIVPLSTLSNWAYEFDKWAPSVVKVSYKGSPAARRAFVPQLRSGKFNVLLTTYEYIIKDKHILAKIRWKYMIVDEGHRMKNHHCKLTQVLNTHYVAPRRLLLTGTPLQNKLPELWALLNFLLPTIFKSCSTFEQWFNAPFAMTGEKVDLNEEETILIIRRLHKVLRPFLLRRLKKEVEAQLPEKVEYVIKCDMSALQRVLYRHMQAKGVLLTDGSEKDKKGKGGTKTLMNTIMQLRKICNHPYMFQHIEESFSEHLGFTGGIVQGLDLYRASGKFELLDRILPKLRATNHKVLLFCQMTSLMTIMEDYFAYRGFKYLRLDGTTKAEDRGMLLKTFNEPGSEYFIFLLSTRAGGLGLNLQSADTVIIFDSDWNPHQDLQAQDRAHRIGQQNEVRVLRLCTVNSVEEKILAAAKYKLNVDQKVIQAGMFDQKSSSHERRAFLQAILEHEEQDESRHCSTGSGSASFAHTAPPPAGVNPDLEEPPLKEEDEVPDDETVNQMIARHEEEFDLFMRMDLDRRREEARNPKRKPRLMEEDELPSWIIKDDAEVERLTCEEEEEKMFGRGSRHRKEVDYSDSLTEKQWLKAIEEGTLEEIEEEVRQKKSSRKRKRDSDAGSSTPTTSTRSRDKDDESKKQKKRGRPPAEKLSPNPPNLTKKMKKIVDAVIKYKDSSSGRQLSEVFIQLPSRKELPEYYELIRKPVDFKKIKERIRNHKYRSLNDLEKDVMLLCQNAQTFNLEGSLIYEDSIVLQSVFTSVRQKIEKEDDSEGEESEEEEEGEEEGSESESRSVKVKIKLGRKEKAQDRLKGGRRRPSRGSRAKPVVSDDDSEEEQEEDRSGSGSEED
# Experimental: as §1
# For measurement of BRG1 degradation, a stable HeLa cell line expressing HiBit-BRG1 and LgBit was generated. The same protocol as above was then followed.
# as §2
# T1 sequence (P51531 whole entry, the tested form may be a part): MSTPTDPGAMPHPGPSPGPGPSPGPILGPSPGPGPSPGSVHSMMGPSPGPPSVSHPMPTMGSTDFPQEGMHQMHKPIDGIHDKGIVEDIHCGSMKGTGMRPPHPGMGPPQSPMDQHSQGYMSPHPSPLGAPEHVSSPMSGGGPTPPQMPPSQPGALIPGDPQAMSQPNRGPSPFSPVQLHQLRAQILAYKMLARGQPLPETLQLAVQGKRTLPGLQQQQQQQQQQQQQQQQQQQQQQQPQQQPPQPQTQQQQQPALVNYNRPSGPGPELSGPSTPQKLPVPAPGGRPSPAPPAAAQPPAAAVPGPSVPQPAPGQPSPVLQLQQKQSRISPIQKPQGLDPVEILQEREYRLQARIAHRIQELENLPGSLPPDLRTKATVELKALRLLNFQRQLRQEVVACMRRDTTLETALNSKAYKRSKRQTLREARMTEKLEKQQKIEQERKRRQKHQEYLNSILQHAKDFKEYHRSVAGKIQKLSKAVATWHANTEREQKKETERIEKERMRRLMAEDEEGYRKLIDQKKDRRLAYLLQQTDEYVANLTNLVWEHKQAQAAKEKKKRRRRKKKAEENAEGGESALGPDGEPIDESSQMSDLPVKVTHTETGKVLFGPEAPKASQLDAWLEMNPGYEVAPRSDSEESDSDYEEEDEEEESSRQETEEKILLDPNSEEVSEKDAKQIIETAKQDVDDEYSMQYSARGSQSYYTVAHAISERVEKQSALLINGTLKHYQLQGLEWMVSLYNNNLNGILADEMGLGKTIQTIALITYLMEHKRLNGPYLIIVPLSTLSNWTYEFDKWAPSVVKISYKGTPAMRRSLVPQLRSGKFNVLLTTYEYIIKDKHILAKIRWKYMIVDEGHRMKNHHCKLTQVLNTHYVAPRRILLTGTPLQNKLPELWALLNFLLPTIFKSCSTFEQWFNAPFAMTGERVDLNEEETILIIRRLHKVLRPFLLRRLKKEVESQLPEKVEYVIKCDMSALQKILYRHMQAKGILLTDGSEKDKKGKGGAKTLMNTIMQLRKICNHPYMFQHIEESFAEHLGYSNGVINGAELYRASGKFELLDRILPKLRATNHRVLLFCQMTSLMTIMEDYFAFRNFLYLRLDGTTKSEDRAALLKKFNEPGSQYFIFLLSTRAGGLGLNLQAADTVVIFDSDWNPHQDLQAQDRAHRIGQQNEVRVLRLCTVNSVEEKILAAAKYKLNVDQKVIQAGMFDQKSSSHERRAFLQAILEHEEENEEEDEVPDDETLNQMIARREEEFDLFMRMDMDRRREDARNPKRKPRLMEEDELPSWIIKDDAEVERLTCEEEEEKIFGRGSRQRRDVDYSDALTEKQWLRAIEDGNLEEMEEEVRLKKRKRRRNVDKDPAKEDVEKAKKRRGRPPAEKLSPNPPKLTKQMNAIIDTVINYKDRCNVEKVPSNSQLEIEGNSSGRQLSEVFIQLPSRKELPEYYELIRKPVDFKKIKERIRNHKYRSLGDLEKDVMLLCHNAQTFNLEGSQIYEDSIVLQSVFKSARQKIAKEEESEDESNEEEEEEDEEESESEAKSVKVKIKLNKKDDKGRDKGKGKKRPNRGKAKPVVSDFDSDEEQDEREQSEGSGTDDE
Dmax [2],Structure (SMILES),BRM HiBit Degradation Maximum (%) [1]
< 50%,"Nc1nnc(-c2ccccc2O)cc1OCC12CC(CNC(=O)CCCOc3cccc4c3C(=O)N(C3CCC(=O)NC3=O)C4=O)(C1)C2 (stereo not shown) [Compound 2, N-[[3-([[3-amino-6-(2-hydroxyphenyl)pyridazin-4-yl]oxy]methyl)bicyclo[1.1.1]pentan-1-yl]methyl]-4-[[2-(2,6-dioxopiperidin-3-yl)-1,3-dioxoisoindol-4-yl]oxy]butanamide]",C (“C” indicates maximum degradation < 50%)
< 50%,"Nc1nnc(-c2ccccc2O)cc1OCC12CC(CNC(=O)CCCCOc3cccc4c3C(=O)N(C3CCC(=O)NC3=O)C4=O)(C1)C2 (stereo not shown) [Compound 3, N-[[3-([[3-amino-6-(2-hydroxyphenyl)pyridazin-4-yl]oxy]methyl)bicyclo[1.1.1]pentan-1-yl]methyl]-5-[[2-(2,6-dioxopiperidin-3-yl)-1,3-dioxoisoindol-4-yl]oxy]pentanamide]",C (“C” indicates maximum degradation < 50%)
< 50%,"Nc1nnc(-c2ccccc2O)cc1OCC12CC(CNC(=O)CCCCCCOc3cccc4c3C(=O)N(C3CCC(=O)NC3=O)C4=O)(C1)C2 (stereo not shown) [Compound 4, N-[[3-([[3-amino-6-(2-hydroxyphenyl)pyridazin-4-yl]oxy]methyl)bicyclo[1.1.1]pentan-1-yl]methyl]-7-[[2-(2,6-dioxopiperidin-3-yl)-1,3-dioxoisoindol-4-yl]oxy]heptanamide]",C (“C” indicates maximum degradation < 50%)
< 50%,"Nc1nnc(-c2ccccc2O)cc1OCC12CC(CNC(=O)CCCCCCCOc3cccc4c3C(=O)N(C3CCC(=O)NC3=O)C4=O)(C1)C2 (stereo not shown) [Compound 5, N-[[3-([[3-amino-6-(2-hydroxyphenyl)pyridazin-4-yl]oxy]methyl)bicyclo[1.1.1]pentan-1-yl]methyl]-8-[[2-(2,6-dioxopiperidin-3-yl)-1,3-dioxoisoindol-4-yl]oxy]octanamide]",C (“C” indicates maximum degradation < 50%)
< 50%,"Nc1nnc(-c2ccccc2O)cc1OCC12CC(CNC(=O)CCCCCCCCNc3cccc4c3C(=O)N(C3CCC(=O)NC3=O)C4=O)(C1)C2 (stereo not shown) [Compound 7, N-[[3-([[3-amino-6-(2-hydroxyphenyl)pyridazin-4-yl]oxy]methyl)bicyclo[1.1.1]pentan-1-yl]methyl]-9-[[2-(2,6-dioxopiperidin-3-yl)-1,3-dioxoisoindol-4-yl]amino]nonanamide]",C (“C” indicates maximum degradation < 50%)
< 50%,"Nc1nnc(-c2ccccc2O)cc1OCC12CC(CNC(=O)CCCCCCCCCCNc3cccc4c3C(=O)N(C3CCC(=O)NC3=O)C4=O)(C1)C2 (stereo not shown) [Compound 8, N-[[3-([[3-amino-6-(2-hydroxyphenyl)pyridazin-4-yl]oxy]methyl)bicyclo[1.1.1]pentan-1-yl]methyl]-11-[[2-(2,6-dioxopiperidin-3-yl)-1,3-dioxoisoindol-4-yl]amino]undecanamide]",C (“C” indicates maximum degradation < 50%)
< 50%,"Nc1nnc(-c2ccccc2O)cc1OCC12CC(CNC(=O)CCCCCCCCNc3ccc4c(c3)C(=O)N(C3CCC(=O)NC3=O)C4=O)(C1)C2 (stereo not shown) [Compound 9, N-[[3-([[3-amino-6-(2-hydroxyphenyl)pyridazin-4-yl]oxy]methyl)bicyclo[1.1.1]pentan-1-yl]methyl]-9-[[2-(2,6-dioxopiperidin-3-yl)-1,3-dioxoisoindol-5-yl]amino]nonanamide]",C (“C” indicates maximum degradation < 50%)
< 50%,"Nc1nnc(-c2ccccc2O)cc1OCC12CC(CNC(=O)CCOCCOCCNc3cccc4c3C(=O)N(C3CCC(=O)NC3=O)C4=O)(C1)C2 (stereo not shown) [Compound 11, N-[[3-([[3-amino-6-(2-hydroxyphenyl)pyridazin-4-yl]oxy]methyl)bicyclo[1.1.1]pentan-1-yl]methyl]-3-[2-(2-[[2-(2,6-dioxopiperidin-3-yl)-1,3-dioxoisoindol-4-yl]amino]ethoxy)ethoxy]propanamide]",C (“C” indicates maximum degradation < 50%)
< 50%,"Nc1nnc(-c2ccccc2O)cc1OCC12CC(CNC(=O)CCOCCOCCOc3cccc4c3C(=O)N(C3CCC(=O)NC3=O)C4=O)(C1)C2 (stereo not shown) [Compound 14, N-((3-(((3-amino-6-(2-hydroxyphenyl)pyridazin-4-yl)oxy)methyl)bicyclo[1.1.1]pentan-1-yl)methyl)-3-(2-(2-((2-(2,6-dioxopiperidin-3-yl)-1,3-dioxoisoindolin-4-yl)oxy)ethoxy)ethoxy)propanamide]",C (“C” indicates maximum degradation < 50%)

# Further lines, the compound ahead of its results:
Structure (SMILES),Dmax [2],BRM HiBit Degradation Maximum (%) [1]
"Nc1nnc(-c2ccccc2O)cc1OCC12CC(CNC(=O)CCOCCOCCOc3ccc4c(c3)C(=O)N(C3CCC(=O)NC3=O)C4=O)(C1)C2 (stereo not shown) [Compound 1, N-[[3-([[3-amino-6-(2-hydroxyphenyl)pyridazin-4-yl]oxy]methyl)bicyclo[1.1.1]pentan-1-yl]methyl]-3-[2-(2-[[2-(2,6-dioxopiperidin-3-yl)-1,3-dioxoisoindol-5-yl]oxy]ethoxy)ethoxy]propanamide]",< 50%,C (“C” indicates maximum degradation < 50%)
"Nc1nnc(-c2ccccc2O)cc1OCC12CC(CNC(=O)CCOCCOCCNc3ccc4c(c3)C(=O)N(C3CCC(=O)NC3=O)C4=O)(C1)C2 (stereo not shown) [Compound 6, N-[[3-([[3-amino-6-(2-hydroxyphenyl)pyridazin-4-yl]oxy]methyl)bicyclo[1.1.1]pentan-1-yl]methyl]-3-[2-(2-[[2-(2,6-dioxopiperidin-3-yl)-1,3-dioxoisoindol-5-yl]amino]ethoxy)ethoxy]propanamide]",< 50%,C (“C” indicates maximum degradation < 50%)
"Nc1nnc(-c2ccccc2O)cc1OCC12CC(CNC(=O)CCCCCCCCCCNc3ccc4c(c3)C(=O)N(C3CCC(=O)NC3=O)C4=O)(C1)C2 (stereo not shown) [Compound 10, N-[[3-([[3-amino-6-(2-hydroxyphenyl)pyridazin-4-yl]oxy]methyl)bicyclo[1.1.1]pentan-1-yl]methyl]-11-[[2-(2,6-dioxopiperidin-3-yl)-1,3-dioxoisoindol-5-yl]amino]undecanamide]",< 50%,C (“C” indicates maximum degradation < 50%)
"Nc1nnc(-c2ccccc2O)cc1OCC12CC(CNC(=O)C3CC3CNC(=O)COc3cccc4c3C(=O)N(C3CCC(=O)NC3=O)C4=O)(C1)C2 (stereo not shown) [Compound 12, N-[[3-([[3-amino-6-(2-hydroxyphenyl)pyridazin-4-yl]oxy]methyl)bicyclo[1.1.1]pentan-1-yl]methyl]-2-[(2-[[2-(2,6-dioxopiperidin-3-yl)-1,3-dioxoisoindol-4-yl]oxy]acetamido)methyl]cyclopropane-1-carboxamide]",< 50%,C (“C” indicates maximum degradation < 50%)
"Nc1nnc(-c2ccccc2O)cc1OCC12CC(CNC(=O)C3CC3CNC(=O)COc3ccc4c(c3)C(=O)N(C3CCC(=O)NC3=O)C4=O)(C1)C2 (stereo not shown) [Compound 13, N-[[3-([[3-amino-6-(2-hydroxyphenyl)pyridazin-4-yl]oxy]methyl)bicyclo[1.1.1]pentan-1-yl]methyl]-2-[(2-[[2-(2,6-dioxopiperidin-3-yl)-1,3-dioxoisoindol-5-yl]oxy]acetamido)methyl]cyclopropane-1-carboxamide]",< 50%,C (“C” indicates maximum degradation < 50%)
"Nc1nnc(-c2ccccc2O)cc1OCC12CC(CNC(=O)C3CCN(CCOc4ccc5c(c4)C(=O)N(C4CCC(=O)NC4=O)C5=O)CC3)(C1)C2 (stereo not shown) [Compound 15, N-((3-(((3-amino-6-(2-hydroxyphenyl)pyridazin-4-yl)oxy)methyl)bicyclo[1.1.1]pentan-1-yl)methyl)-1-(2-((2-(2,6-dioxopiperidin-3-yl)-1,3-dioxoisoindolin-5-yl)oxy)ethyl)piperidine-4-carboxamide]",< 50%,C (“C” indicates maximum degradation < 50%)
"Nc1nnc(-c2ccccc2O)cc1OCC12CC(CNC(=O)CCN3CCN(c4ccc5c(c4)C(=O)N(C4CCC(=O)NC4=O)C5=O)CC3)(C1)C2 (stereo not shown) [Compound 16, N-((3-(((3-amino-6-(2-hydroxyphenyl)pyridazin-4-yl)oxy)methyl)bicyclo[1.1.1]pentan-1-yl)methyl)-3-(4-(2-(2,6-dioxopiperidin-3-yl)-1,3-dioxoisoindolin-5-yl)piperazin-1-yl) propanamide]",< 50%,C (“C” indicates maximum degradation < 50%)
"Nc1nnc(-c2ccccc2O)cc1OCC12CC(CNC(=O)CCN3CC4(C3)CN(c3ccc5c(c3)C(=O)N(C3CCC(=O)NC3=O)C5=O)C4)(C1)C2 (stereo not shown) [Compound 17, N-((3-(((3-amino-6-(2-hydroxyphenyl)pyridazin-4-yl)oxy)methyl)bicyclo[1.1.1]pentan-1-yl)methyl)-3-(6-(2-(2,6-dioxopiperidin-3-yl)-1,3-dioxoisoindolin-5-yl)-2,6-diazaspiro [3.3]heptan-2-yl)propanamide]",< 50%,C (“C” indicates maximum degradation < 50%)
